Source: patent US5288709A, “Erythromycin derivatives” (priority 1991, dated 1994)
Converted amounts (≈) assume the structure as drawn. Read-outs that look alike come from different tables or passages of the source.

Key:
Experiment in all cases: In-vitro antimicrobial activity primary screen (agar dilution MIC)
Type in all cases: cell-based
[1] = tested on: Pseudomonas aeruginosa K799/WT
Description: (§1) The antimicrobial spectra of several of the compounds of the present invention were tested as described below.
(§2) Twelve petri dishes containing successive aqueous dilutions of the test compounds, mixed with 10 mL of sterilized Brain Heart Infusion (BHI) agar (Difco 0418-01-5), were prepared. Each plate was inoculated with 1:100 (or 1:10 for slow growing strains (primarily Micrococcus and Streptococcus) dilutions of up to 32 different microorganisms, using a Steers replicator block. The inoculated plates were incubated at 35 37° C. for 20-24 hours. In addition, a control plate, using BHI agar containing no test compound, was prepared and incubated at the beginning and the end of each test.
(§3) An additional plate containing a compound having known susceptibility patterns for the organisms being tested and belonging to the same antibiotic class as the test compounds was also prepared and incubated as a further control, as well as to provide test-to test comparability.
(§4) After incubation, each plate was read. The MIC (minimum inhibitory concentration) is defined as the lowest concentration of test compound yielding no growth, a slight haze, or sparsely isolated colonies on the inoculum spot as compared to the growth control containing no test compound.

[2] = tested on: Staphylococcus aureus A5177; conditions: Staphylococcus aureus, A5177, 24 h, Staphylococcus aureus A5177; BHI agar, 20-24 h
Description: as §1, §2, §3, §4

[3] = tested on: Streptococcus agalactiae CMX 508; conditions: 20-24 h
Description: as §1, §2, §3, §4

[4] = tested on: Staphylococcus epidermidis 3519; conditions: Staphylococcus epidermidis, 3519, 24 h, BHI agar, 20-24 h
Description: as §1, §2, §3, §4

[5] = tested on: Micrococcus luteus ATCC 4698; conditions: 20-24 h
Description: as §1, §2, §3, §4

[6] = tested on: Enterococcus faecium ATCC 8043
Description: as §1, §2, §3, §4

[7] = tested on: Pseudomonas aeruginosa A5007
Description: as §1, §2, §3, §4

[8] = tested on: Staphylococcus aureus ATCC 6538P; conditions: Staphylococcus aureus, ATCC6538P, 24 h, BHI agar, 20-24 h
Description: as §1, §2, §3, §4

[9] = tested on: Streptococcus pyrogenes EES61; conditions: BHI agar, 20-24 h
Description: as §1, §2, §3, §4

[10] = tested on: Staphylococcus aureus 45; conditions: BHI agar, 20-24 h
Description: as §1, §2, §3, §4

[11] = tested on: Micrococcus luteus ATCC 9341; conditions: 20-24 h
Description: as §1, §2, §3, §4

[12] = tested on: Klebsiella pneumoniae ATCC 8045
Description: as §1, §2, §3, §4

[13] = tested on: Providencia stuartii CMX 640
Description: as §1, §2, §3, §4

[14] = tested on: Staphylococcus aureus 45 RAR2; conditions: Staphylococcus aureus, 45RAR2, 24 h, BHI agar, 20-24 h
Description: as §1, §2, §3, §4

[15] = tested on: Escherichia coli H560; conditions: Escherichia coli H560, BHI agar, 20-24 h
Description: as §1, §2, §3, §4

[16] = tested on: Escherichia coli JUHL; conditions: Escherichia coli JUHL, BHI agar, 20-24 h
Description: as §1, §2, §3, §4

[17] = tested on: Streptococcus bovis A5169; conditions: Streptococcus equinus, BHI agar, 20-24 h, read-out: MIC
Description: as §1, §2, §3, §4

[18] = tested on: Enterobacter aerogenes ATCC 13048; conditions: Klebsiella aerogenes
Description: as §1, §2, §3, §4

[19] = tested on: Escherichia coli SS; conditions: Escherichia coli, 24 h, BHI agar, 20-24 h
Description: as §1, §2, §3, §4

[20] = tested on: Streptococcus pyrogenes 2548 INDUC; conditions: Streptococcus, 2548INDUC, 24 h, BHI agar, 20-24 h
Description: as §1, §2, §3, §4

[21] = tested on: Acinetobacter SP CMX 669; conditions: Acinetobacter SP CMX 669, BHI agar, 20-24 h
Description: as §1, §2, §3, §4

[22] = tested on: Pseudomonas cepacia 2961; conditions: BHI agar, 20-24 h
Description: as §1, §2, §3, §4

[23] = tested on: Pseudomonas aeruginosa BMH10; conditions: BHI agar, 20-24 h
Description: as §1, §2, §3, §4

[24] = tested on: Escherichia coli DC-2; conditions: Escherichia coli DC-2, BHI agar, 20-24 h
Description: as §1, §2, §3, §4

[25] = tested on: Pseudomonas aeruginosa K799/61; conditions: Pseudomonas aeruginosa, K799/61, 24 h
Description: as §1, §2, §3, §4

[26] = tested on: Staphylococcus aureus CMX 686B; conditions: CMX686B, BHI agar, 20-24 h, read-out: MIC
Description: as §1, §2
as §3, with “comparability. Erythromycin A was used for this purpose.” for “comparability.”
as §4

[27] = tested on: Staphylococcus aureus CMX 503A; conditions: Staphylococcus aureus, CMX503A, 24 h, BHI agar, 20-24 h, read-out: MIC
Description: as §1, §2
as §3, with “comparability. Erythromycin A was used for this purpose.” for “comparability.”
as §4

[28] = tested on: Staphylococcus aureus CMX 553; conditions: Staphylococcus aureus, CMX553, 24 h, BHI agar, 20-24 h, read-out: MIC
Description: as §1, §2
as §3, with “comparability. Erythromycin A was used for this purpose.” for “comparability.”
as §4

CC[C@H]1OC(=O)[C@H](C)[C@@H](O[C@H]2C[C@@](C)(OC)[C@@H](N)[C@H](C)O2)[C@H](C)[C@@H](O[C@@H]2O[C@H](C)C[C@H](N(C)C)[C@H]2O)[C@](C)(O)C[C@@H](C)[C@@H]2O[C@@]1(C)C(=O)[C@H]2C [Example 14, (4"S,9S)-4"-Amino-9-deoxo-4",11,12-trideoxy-9,12-epoxy-11-oxoerythromycin A]
MIC ([1]; Pseudomonas aeruginosa, K799/WT, 24 h): > 100 µg/mL
MIC [2]: 3.1 µg/mL (≈ 4.34 µM)
MIC ([3]; Streptococcus agalactiae, CMX508, 24 h, BHI agar): 0.05 µg/mL (≈ 0.0699 µM)
MIC [4]: 0.39 µg/mL (≈ 0.546 µM)
MIC ([5]; Micrococcus luteus, ATCC4698, 24 h, BHI agar): 0.1 µg/mL (≈ 0.14 µM)
MIC ([6]; Enterococcus faecium, ATCC8043, 24 h): 0.1 µg/mL (≈ 0.14 µM)
MIC ([7]; Pseudomonas aeruginosa, A5007, 24 h): > 100 µg/mL
MIC [8]: 0.39 µg/mL (≈ 0.546 µM)
MIC ([9]; Streptococcus, EES61, 24 h): 0.05 µg/mL (≈ 0.0699 µM)
MIC ([10]; read-out: MIC): 0.39 µg/mL (≈ 0.546 µM)
MIC ([11]; ATCC9341, BHI agar, read-out: MIC): 0.05 µg/mL (≈ 0.0699 µM)
MIC ([12]; Klebsiella pneumoniae, ATCC8045, 24 h): 100 µg/mL (≈ 140 µM)
MIC ([13]; Providencia stuartii, CMX640, 24 h): > 100 µg/mL
MIC [14]: 0.39 µg/mL (≈ 0.546 µM)
MIC ([15]; Escherichia coli, H560, 24 h): 12.5 µg/mL (≈ 17.5 µM)
MIC ([16]; Escherichia coli, 24 h): 25 µg/mL (≈ 35 µM)
MIC [17]: 0.1 µg/mL (≈ 0.14 µM)
MIC ([18]; ATCC13048, 24 h): > 100 µg/mL
MIC [19]: 0.2 µg/mL (≈ 0.28 µM)
MIC [20]: 3.1 µg/mL (≈ 4.34 µM)
MIC ([21]; Acinetobacter, SPCMX669, 24 h): 12.5 µg/mL (≈ 17.5 µM)
MIC ([22]; Burkholderia cepacia, 2961, 24 h): > 100 µg/mL
MIC ([23]; Pseudomonas aeruginosa, BMH10, 24 h): 50 µg/mL (≈ 69.9 µM)
MIC ([24]; Escherichia coli, DC2, 24 h): 25 µg/mL (≈ 35 µM)
MIC ([25]; Pseudomonas aeruginosa K799/61, BHI agar, 20-24 h): 1.56 µg/mL (≈ 2.18 µM)
MIC [26]: 0.39 µg/mL (≈ 0.546 µM)
MIC [27]: 0.39 µg/mL (≈ 0.546 µM)
MIC [28]: 0.2 µg/mL (≈ 0.28 µM)

CC[C@H]1OC(=O)[C@H](C)[C@@H](O[C@H]2C[C@@](C)(OC)[C@@H](NS(C)(=O)=O)[C@H](C)O2)[C@H](C)[C@@H](O[C@@H]2O[C@H](C)C[C@H](N(C)C)[C@H]2O)[C@](C)(O)C[C@@H](C)[C@@H]2O[C@@]1(C)C(=O)[C@H]2C [Example 16, (4"S,9S)-9-Deoxo-4",11,12-trideoxy-9,12-epoxy-4"-(methylsulfonyl)amino-11-oxerythromycin A]
MIC ([1]; Pseudomonas aeruginosa K799/WT, BHI agar, 20-24 h, read-out: MIC): 100 µg/mL (≈ 126 µM)
MIC [2]: 0.39 µg/mL (≈ 0.492 µM)
MIC ([3]; CMX508, BHI agar, read-out: MIC): 0.02 µg/mL (≈ 0.0252 µM)
MIC [4]: 0.39 µg/mL (≈ 0.492 µM)
MIC ([5]; ATCC4698, BHI agar, read-out: MIC): 0.05 µg/mL (≈ 0.063 µM)
MIC ([6]; ATCC8043, Enterococcus faecium ATCC 8043, BHI agar, 20-24 h, read-out: MIC): 0.05 µg/mL (≈ 0.063 µM)
MIC ([7]; Pseudomonas aeruginosa A5007, BHI agar, 20-24 h, read-out: MIC): > 100 µg/mL
MIC [8]: 0.39 µg/mL (≈ 0.492 µM)
MIC ([9]; read-out: MIC): < 0.005 µg/mL
MIC ([10]; Staphylococcus aureus, 45, 24 h): 0.39 µg/mL (≈ 0.492 µM)
MIC ([11]; Micrococcus luteus, ATCC9341, 24 h, BHI agar): 0.02 µg/mL (≈ 0.0252 µM)
MIC ([12]; ATCC8045, Klebsiella pneumoniae ATCC 8045, BHI agar, 20-24 h, read-out: MIC): > 100 µg/mL
MIC ([13]; CMX640, Providencia stuartii CMX 640, BHI agar, 20-24 h, read-out: MIC): > 100 µg/mL
MIC [14]: 0.78 µg/mL (≈ 0.984 µM)
MIC ([15]; read-out: MIC): > 100 µg/mL
MIC ([16]; read-out: MIC): > 100 µg/mL
MIC [17]: < 0.005 µg/mL
MIC ([18]; ATCC13048, Enterobacter aerogenes ATCC 13048, BHI agar, 20-24 h, read-out: MIC): > 100 µg/mL
MIC [19]: 0.39 µg/mL (≈ 0.492 µM)
MIC [20]: 3.1 µg/mL (≈ 3.91 µM)
MIC ([21]; SPCMX669, read-out: MIC): 50 µg/mL (≈ 63 µM)
MIC ([22]; Burkholderia cepacia, read-out: MIC): > 100 µg/mL
MIC ([23]; read-out: MIC): 100 µg/mL (≈ 126 µM)
MIC ([24]; DC2, read-out: MIC): > 100 µg/mL
MIC [25]: 3.1 µg/mL (≈ 3.91 µM)
MIC [26]: 0.39 µg/mL (≈ 0.492 µM)
MIC [27]: 0.39 µg/mL (≈ 0.492 µM)
MIC [28]: 0.39 µg/mL (≈ 0.492 µM)
